Test results published in patent publication US8952192B2, “Phosphorylated and branched dihydroxy-pentane-dione (DPD) analogs as quorum sensing inhibitors in bacteria” (University of Maryland, College Park, priority 2011, dated 2015).
Where two headings read alike, the source gives them in different places.

What was measured:
[1] = tested on: lsr expression in S. typhimurium (lsr-lacZ reporter strains); assay: QS response (lsr expression): AI-2 dependent β-galactosidase production, Miller assay; assay type: cell-based, Salmonella typhimurium; conditions: for effect on AI-2-mediated lsr expression (β-galactosidase), in words: S. typhimurium MET715 (luxS−), 20 μM AI-2 (DPD) + 20 μM analog
Experimental: (§1) The panel of C1-alkyl analogs was screened to identify QS modulators in the enteric bacteria E. coli and S. typhimurium. Transcription of the QS associated lsr operon, by using lsr-lacZ reporter strains (Table 2) which produce β-galactosidase in response to added AI-2 was monitored. In order to first establish if the analogs were agonists or antagonists in the QS circuit, the analogs were incubated with E. coli LW7 pLW11 and S. typhimurium MET715 (FIG. 19a-b) both of which are luxS^−. None of the analogs, except ethyl-DPD behaved as agonists for lsr expression. Previous studies investigating AI-2 antagonism in P. aeruginosa or in S. typhimurium were carried out using chemically synthesized AI-2 added to luxS^− cells. […] The same trends were obtained by adding a 1:1 ratio of enzymatically synthesized AI-2 and DPD analogs to the luxS^− strains E. coli LW7 pLW11 and S. typhimurium MET715 (FIG. 11a-b). None of the tested DPD analogs were bacteriocidal or bacteriostatic as the OD600 values of E. coli ZK126 pLW11 and S. typhimurium MET708 in the presence and absence of the analogs were similar (FIG. 10). Though the QS circuitry of the enteric organisms, E. coli and S. typhimurium are homologous they respond differently to the DPD analogs. The E. coli QS circuitry is susceptible to being silenced by a variety of DPD analogs of different shapes and sizes whereas in S. typhimurium, only a handful of DPD analogs could antagonize the action of AI-2. […] Isobutyl-DPD emerged as an effective and non-species-specific quencher; causing significant lsr expression knockdowns in both E. coli and S. typhimurium.
(§2) The QS response indicated by lsr gene expression was analyzed in pure culture studies by culturing E. coli LW7 pLW11, E. coli ZK126 pLW11 and S. typhimurium MET708, S. typhimurium MET715 overnight in LB medium supplemented with appropriate antibiotics as stated previously. These cells were then diluted into fresh LB medium (with antibiotics) and grown to an OD600 of 0.8-1.0 at 30° C., 250 rpm. Cells were then collected by centrifugation at 10,000×g for 10 minutes, and resuspended in 10 mM phosphate buffer. AI-2 (20 μM) and the respective analog (20 μM) were added to the E. coli or S. typhimurium suspension for 2 hours at 37° C. AI-2 dependent β-galactosidase production was quantified by the Miller assay.
(§3) The QS response indicated by lsr gene expression was analyzed in pure culture studies by culturing E. coli LW7 pLW11 and S. typhimurium MET715 overnight at 30° C. in LB medium supplemented with appropriate antibiotics as stated previously. These cells were then diluted into fresh LB medium (with antibiotics) and grown to an OD600 of 0.4-0.8 at 37° C., 250 rpm. Cells were then collected by centrifugation at 10,000×g for 10 min and resuspended in 10 mM phosphate buffer. AI-2 (20 μM) and the respective analog (20 μM) were added to the E. coli or S. typhimurium suspension for 2 h at 37° C. AI-2 dependent β-galactosidase production was quantified by the Miller assay.
(§4) The QS response indicated by lsr gene expression was analyzed in pure culture studies by culturing E. coli LW7 pLW11, E. coli ZK126 pLW11 and S. typhimurium MET708, S. typhimurium MET715 overnight in LB medium individually supplemented with appropriate antibiotics, as specified above. These cells were diluted into fresh LB medium (with antibiotics) and grown to an OD600 of 0.8-1.0 at 30° C., 250 rpm. Cells were collected by centrifugation at 10,000×g for 10 minutes, and resuspended in 10 mM phosphate buffer. AI-2 (20 μM) and the respective analog (20 μM) were added to the E. coli or S. typhimurium suspension for 2 hours at 37° C. AI-2 dependent β-galactosidase production was quantified by the Miller assay.

[2] = tested on: lsr expression in E. coli (lsr-lacZ reporter strains); assay: as above; assay type: cell-based, Escherichia coli; conditions: for inhibition of AI-2-mediated lsr expression (β-galactosidase), in words: E. coli LW7 pLW11 (luxS−), 20 μM AI-2 (DPD) + 20 μM analog; for effect on native lsr expression (QS response): E. coli ZK126 pLW11 (luxS+), cells produce their own AI-2; for IC50: Escherichia coli
Experimental: as §1, §2, §3, §4

[3] = tested on: pre-formed E. coli biofilms (K-12 MG1655); assay: Effects on pre-formed E. coli biofilms (microfluidic flow cell, COMSTAT, optical density); assay type: cell-based
Experimental: (§5) The E. coli biofilms were formed using the strain K-12 MG1655 ATCC(47076). P. aeruginosa biofilms were formed using wild type strain PAO1. For both strains, overnight cultures were diluted to an OD600 of 0.25, introduced into the microfluidic channel, and incubated with no flow at 37° C. for 2 h. LB (Luria Bertani) growth medium was then continuously flowed into the device at a rate of 10 μL/hr. As needed, this medium was supplemented with various concentrations of analog or antibiotic at specified times. In studies of biofilm inhibition, after 2 hours of cell incubation, the analog diluted in LB medium is flown into the microfluidic channel for 48 hours at 10 μL/hr. In studies of effects on pre-formed biofilms, LB is introduced over the cells at 10 μL/hr for a period of 36 to 48 hours to yield stable biofilms. Then, the analog or analog-antibiotic combination was introduced for an additional 36 to 48 hours.
(§6) Biofilms were stained in situ for microscopy. They were first treated with a Live/Dead bacterial labeling kit (Invitrogen #L7012) in which two labeling components were mixed in a 1:1 ratio to a final volume of 10 μL. The dye was introduced into the channel at 10 μL/hr, the same flow rate as during biofilm growth. This treatment was then followed by 10 μL/hr of a 100 μg/mL calcofluor (Fluorescence Brightener 28, Sigma #F3543) solution for labeling polysaccharides contained in the biofilm matrix. The dyes are fixed by flowing in 3% paraformaldehyde at the same flow rate.
(§7) Labeled samples are imaged using a confocal microscope (Zeiss LSM710). For unpatterned coverslips, Z-stacks were obtained at 7 points in each microfluidic channel, each stack was comprised of 150 slices. For patterned coverslips used while measuring the optical density of the biofilms, two stacks were obtained in each channel (i.e. one at each pinhole). The image stacks were analyzed using COMSTAT, which provides morphological characteristics. Average biofilm thickness and biomass were averaged over the image stacks obtained at each of these 7 data points in the microfluidic channel. Additionally, surface reconstructions of the biofilms were created using Imaris (Bitplane) to aid in visualization of the resulting structures.
(§8) The data corresponding to the change in optical density of the biofilms were obtained from the photodiodes using the standard methodologies. Data for each channel (the average of the response of the two photodiodes) was normalized with respect to the optical density at 48 hours; this method reflects that as of 48 hours, the biofilms have been grown under identical conditions although their optical density values may not be identical. Additionally, since the optical density data itself fluctuates as the biofilm grows, the data for each curve was fitted using a Churchill model (Churchill et al, 1972), represented by log N=[f1^−1+f2^−1]^−1 (1)

[4] = tested on: pre-formed P. aeruginosa biofilms (PAO1); assay: Effects on pre-formed P. aeruginosa biofilms (microfluidic flow cell, COMSTAT, optical density); assay type: cell-based; conditions: gentamicin alone
Experimental: as §5, §6, §7, §8

[5] = molecular target: T1, LsrK (Escherichia coli, UniProt P77432); assay: In vitro phosphorylation of analogs by LsrK (TLC, autoradiography); assay type: biochemical, E. coli; conditions: for phosphorylation by E. coli LsrK: incubation with LsrK in vitro for one hour (Example 6)
T1 construct: made in house; host or cells: E. coli BL21
T1 sequence (P77432 whole entry): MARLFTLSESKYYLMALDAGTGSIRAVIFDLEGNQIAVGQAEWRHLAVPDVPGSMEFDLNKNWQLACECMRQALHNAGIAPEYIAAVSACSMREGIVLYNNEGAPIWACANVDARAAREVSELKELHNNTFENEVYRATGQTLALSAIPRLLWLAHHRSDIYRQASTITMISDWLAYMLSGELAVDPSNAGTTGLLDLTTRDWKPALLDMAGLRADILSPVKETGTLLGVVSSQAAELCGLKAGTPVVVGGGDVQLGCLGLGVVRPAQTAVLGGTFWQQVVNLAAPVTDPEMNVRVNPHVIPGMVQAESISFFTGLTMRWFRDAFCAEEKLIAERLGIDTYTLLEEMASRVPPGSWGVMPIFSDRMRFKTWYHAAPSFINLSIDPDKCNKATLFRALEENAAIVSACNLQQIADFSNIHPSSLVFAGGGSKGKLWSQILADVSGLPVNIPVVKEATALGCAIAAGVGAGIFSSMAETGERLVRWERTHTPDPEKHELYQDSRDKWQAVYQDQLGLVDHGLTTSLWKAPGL
Experimental: LsrK was purified and from E. coli BL21 pET200-LsrK as described before. Phosphorylated analogs were synthesized by incubating 1 μM) LsrK with 40 μM ATP (Roche), […] of [γ-^32P] […] A 5 μL aliquot was then spotted onto a cellulose TLC plate (Selecto Scientific). The plate was developed using 0.8 M LiCl as the solvent, air dried and developed via autoradiography.
LsrK was purified from E. coli BL21 pET200-LsrK as described before. Phosphorylated analogs were synthesized by incubating (1 μM) LsrK with (40 μM) ATP (Roche), ([…]) of [P^32] […] An aliquot (2.5 μL) was then spotted onto a cellulose TLC plate (Selecto Scientific). The plate was developed using 0.8 M LiCl as the solvent, air dried and developed via autoradiography.

[6] = tested on: V. harveyi; assay: DPD analogs and representative bacterial species affected (Table 1); assay type: cell-based; set-up: key: x: DPD Analogs and representative bacterial species affected
[7] = tested on: E. coli; assay: as above; assay type: cell-based; set-up: key: x: DPD Analogs and representative bacterial species affected

For O=C(C(=O)C(O)CO)c1ccc([N+](=O)[O-])cc1 (stereo not shown) [Nitrophenyl-DPD, 4-nitrophenyl DPD], the “effect on AI-2-mediated lsr expression (β-galactosidase), in words” value [1] was “increased QS response” and the “inhibition of AI-2-mediated lsr expression (β-galactosidase), in words” value (shortened to “inhibition”) [2] was “no”.
In the case of deoxy-isobutyl-DPD, the “effect on native lsr expression (QS response)” value (from here on “effect on native lsr expression”) [2] is reported as “unable to silence the lsr operon”.
With CCCCC(=O)OCC(OC(=O)CCCC)C(=O)C(=O)CC(C)C (stereo not shown) [Compound 25, 6-methyl-3,4-dioxoheptane-1,2-diyl dipentanoate] the “inhibition” value [2] was “reduced”.
In the case of gentamicin [reference compound], the “drop of biofilm biomass” value ([3]; gentamicin 5 μg/ml without AI-2 analog) is reported as ~50%, the average biofilm biomass ([3]; gentamicin 5 μg/ml without AI-2 analog, LB only 8.5 μm^3/μm^2) is reported as 3.5 μm^3/μm^2 and the average biofilm thickness ([3]; gentamicin 5 μg/ml without AI-2 analog, LB only 12 μm) is reported as 10 μm. For the same compound, the “course of biofilm optical density after 48 h, in words” value ([3]; gentamicin alone, continuous optical density measurement) was “slowed the progress of biofilm maturation”, the biofilm reduction [4] was ~0% and the “course of biofilm optical density after 48 h, in words” value ([4]; continuous optical density measurement) was “slowed the progress of biofilm maturation”.
CCCC(=O)OCC(OC(=O)CCC)C(=O)C(=O)CC(C)C (stereo not shown) [Compound 24, 6-methyl-3,4-dioxoheptane-1,2-diyl dibutyrate] was tested, and the “inhibition” value [2] was “as effective QS quenchers as the unprotected isobutyl DPD”.
O=C(C(=O)C1CC1)C(O)CO (stereo not shown) [cyclopropyl-DPD] was tested, and the “phosphorylation by LsrK” value ([5]; incubation with LsrK and excess ATP for 2 hours (Example 1)) was “phosphorylated” and the “effect on native lsr expression” value [2] was “neither an lsr agonist nor antagonist”.
CCCCCCC(=O)C(=O)[C@@H](O)CO [Hexyl DPD] was tested, and the “bacterial species affected: V. harveyi” value [6] was “x” and the “bacterial species affected: E. coli” value [7] was “x”.
For CC(=O)OCC(OC(C)=O)C(=O)C(=O)CC(C)C (stereo not shown) [Compound 23, 6-methyl-3,4-dioxoheptane-1,2-diyl diacetate], the “inhibition” value [2] was “as effective QS quenchers as the unprotected isobutyl DPD”.
CC(=O)C(=O)C(O)CO (stereo not shown) [AI-2, 4,5-dihydroxy-2,3-pentanedione, reference compound] was tested, and the “more LacZ present than without AI-2” value ([1]; S. typhimurium MET715 (LuxS−), 20 μM AI-2 added) was “about 30%”.
For CCCCC(=O)OCC(OC(=O)CCCC)C(=O)C(C)=O (stereo not shown) [Compound 21, 3,4-dioxopentane-1,2-diyl dipentanoate], the “induction of lsr expression (β-galactosidase)” value ([1]; S. typhimurium MET715 (LuxS−), 20 μM compound, no AI-2 added) was “as effective as DPD”.
With CC(C)(C)CC(=O)C(=O)C(O)CO (stereo not shown) [neopentyl-DPD] the “effect on native lsr expression” value [2] was “substantial reduction”.
CCCCCC(=O)OCC(OC(=O)CCCCC)C(=O)C(=O)CC(C)C (stereo not shown) [Compound 26, 6-methyl-3,4-dioxoheptane-1,2-diyl dihexanoate] was tested, and the “inhibition” value [2] was “abrogated”.
O=C(C(=O)C(O)CO)c1ccc(F)cc1 (stereo not shown) [fluorophenyl, 4-fluorophenyl DPD] was tested, and the “inhibition” value [2] was “no”.
O=C(C(=O)C1CCCC1)C(O)CO (stereo not shown) [Cyclopentyl-DPD, Cyclopentyl DPD] was tested, and the “bacterial species affected: E. coli” value [7] was “x”, the “phosphorylation by E. coli LsrK” value [5] was “significantly phosphorylated” and the “effect on AI-2-mediated lsr expression (β-galactosidase), in words” value [1] was “increased expression”. The “reduction in lsr promoter activity” value ([2]; E. coli LW7, 20 μM DPD + 20 uM analog) was “over 60%”, the “inhibition” value [2] was “inhibit lsr expression” and the IC50 ([2]; Example 6, read-out: IC50 (lsr expression in E. coli)) was 2400 nM. It also gave an IC50 ([2]; concentration reducing lsr expression (β-galactosidase production) to 50% in the presence of 20 μM exogenously added synthetic DPD, read-out: IC50 of analog (nM) to inhibit QS in E. coli) of 2440 nM.
In the case of CH2-cyclohexyl-DPD, the “phosphorylation by E. coli LsrK” value [5] is reported as “weakly phosphorylated”, the “phosphorylation by E. coli LsrK” value ([5]; listed as CH2-cyclohexyl) is reported as “not phosphorylated” and the “inhibition” value [2] is reported as “attenuated lsr expression in E. coli to a lesser extent”.
For CCCCCC(=O)C(=O)[C@@H](O)CO [Pentyl DPD], the “bacterial species affected: V. harveyi” value [6] was “x” and the “bacterial species affected: E. coli” value [7] was “x”.
In the case of O=C(C(=O)C1CCCCCC1)C(O)CO (stereo not shown) [Cycloheptyl-DPD, Cycloheptyl DPD], the “phosphorylation by E. coli LsrK” value [5] is reported as “Neither Cycloheptyl-DPD nor the aromatic analogs were phosphorylated”, the “phosphorylation by E. coli LsrK” value ([5]; listed as cycloheptyl) is reported as “not phosphorylated” and the “inhibition” value [2] is reported as “nor did they affect LsrR-controlled transcription”.
In the case of CCCC(=O)C(=O)[C@@H](O)CO [propyl-DPD], the “bacterial species affected: V. harveyi” value [6] is reported as “x”, the “bacterial species affected: E. coli” value [7] is reported as “x” and the “effect on native lsr expression” value [2] is reported as “significant knockdown”.
2-methylpropyl-DPD was tested, and the “effect on native lsr expression” value [2] was “substantial reduction”.
